Test results published in ChEMBL document CHEMBL4325930, “Hybrid Inhibitors of Malarial Dihydrofolate Reductase with Dual Binding Modes That Can Forestall Resistance” (ACS Med Chem Lett, 2018).
Values after ≈ are worked out from the molar mass of the structure shown.

Assays:
[1] = system: Plasmodium falciparum; test: Antiplasmodial activity against Plasmodium falciparum CSL-2 harboring DHFR NRNL haplotype C59R/S108N/I164L triple mutant; assay type: functional, organism-based
[2] = system: Plasmodium falciparum; test: Antiplasmodial activity against Plasmodium falciparum V1/S harboring DHFR IRNL haplotype N51I/C59R/S108N/I164L quadruple mutant; assay type: functional, organism-based
[3] = system: Vero; test: Cytotoxicity against African green monkey Vero cells; assay type: cell-based; settings: chlorocebus sabaeus
[4] = system: Plasmodium falciparum; test: microbe, parasite or virus in culture; settings: TM4/8.2
[5] = target: T1, Dihydrofolate reductase (Homo sapiens, UniProt P00374)
T1 sequence (P00374 whole entry): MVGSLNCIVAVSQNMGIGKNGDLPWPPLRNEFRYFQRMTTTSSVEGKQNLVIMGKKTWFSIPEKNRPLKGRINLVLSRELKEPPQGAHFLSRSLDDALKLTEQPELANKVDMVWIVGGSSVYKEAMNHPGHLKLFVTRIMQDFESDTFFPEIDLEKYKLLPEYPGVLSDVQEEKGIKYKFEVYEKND

[6] = system: Plasmodium falciparum; test: microbe, parasite or virus in culture; settings: K1CB1
[7] = system: Plasmodium falciparum; test: microbe, parasite or virus in culture; settings: W2
[8] = Solubility of the compound; assay type: physicochemical
[9] = Inhibition of Plasmodium falciparum TM4/8.2 wild type DHFR NCSI haplotype

SMILES | IC50 [1] [µM] | IC50 [2] [µM] | Activity [3] [µM] | IC50 [4] [µM] | Ki [5] [µM] | IC50 [6] [µM] | IC50 [7] [µM] | solubility [8] [µM] | Ki [9] [µM]
CCc1nc(N)nc(N)c1-c1cccc(Cl)c1 | 2.53 | 9.1 | 7 | 0.42 | 0.0016 | 1.31 | 3.94 | – | –
Cc1nc(N)nc(N)c1OCCCOc1cc(Cl)c(Cl)cc1Cl | – | 3.5 | – | 0.23 | – | – | – | – | –
CCc1nc(N)nc(N)c1OCCCOc1ccc(-c2c(N)nc(N)nc2CC)cc1 | – | – | – | – | – | – | – | 1 (≈ 0.425 µg/mL) | –
CCc1nc(N)nc(N)c1-c1ccc(Cl)cc1 [PYRIMETHAMINE] | 42 | > 100 | – | – | – | – | – | – | 0.0006
